Activity calls are given as the source filed them. The rule behind the calls is not given here.
These compounds were tested against T1, C-C chemokine receptor type 9 (Homo sapiens, UniProt P51686) (assay: Antagonist activity against CCR9 in human MOLT4 cells assessed as inhibition of human recombinant TECK-induced calcium response pre-treated before TECK stimulation by Flou-4-AM dye based FLIPR assay). Settings: not given.
T1 sequence (P51686 whole entry): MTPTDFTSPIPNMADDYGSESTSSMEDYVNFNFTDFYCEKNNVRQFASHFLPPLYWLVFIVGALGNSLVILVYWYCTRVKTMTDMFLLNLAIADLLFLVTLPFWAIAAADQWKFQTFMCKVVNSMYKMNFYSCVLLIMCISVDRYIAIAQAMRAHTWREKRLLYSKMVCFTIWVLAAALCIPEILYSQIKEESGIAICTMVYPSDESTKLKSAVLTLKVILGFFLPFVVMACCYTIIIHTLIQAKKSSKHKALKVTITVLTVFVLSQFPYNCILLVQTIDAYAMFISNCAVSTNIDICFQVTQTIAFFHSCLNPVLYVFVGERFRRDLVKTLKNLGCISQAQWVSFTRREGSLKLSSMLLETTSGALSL
Format: functional, cell-based, MOLT-4

Row | Compound | IC50 [nM]
1 | O=C(c1ccncc1)c1cc(Cl)ccc1NS(=O)(=O)c1ccc([N+](=O)[O-])cc1 | < 100
2 | CS(=O)(=O)c1ccc(S(=O)(=O)Nc2ccc(Cl)cc2C(=O)c2cccnc2)cc1 | < 100

Now from value to compound:

Row | IC50 [nM] | Compound
3 | < 100 | Cc1cc(C(=O)c2cc(Cl)ccc2NS(=O)(=O)c2ccc(S(C)(=O)=O)cc2)ccn1
4 | < 100 | CC(=O)c1ccc(S(=O)(=O)Nc2ccc(Br)cc2C(=O)c2ccncc2)cc1
5 | < 100 | COC(=O)CCc1ccc(S(=O)(=O)Nc2ccc(Cl)cc2C(=O)c2ccnc(C)c2)cc1

Same assay, conditions: molt-4

Row | IC50 | Compound
6 | in the range around 100 nM | COc1ccc(S(=O)(=O)Nc2ccc(Cl)cc2C(=O)c2ccccn2)cc1
7 | in the range around 1000 nM | Cc1ncccc1C(=O)c1cc(Cl)ccc1NS(=O)(=O)c1ccc(-c2cnco2)cc1
8 | in the range around 100 nM | Cc1ncccc1C(=O)c1cc(Cl)ccc1NS(=O)(=O)c1ccc(OC(F)(F)F)cc1

Each compound was assayed on Mus musculus (assay: Inhibition of inflammatory bowel disease-associated growth retardation in MDR1a-knockout mouse at 50 mg/kg, sc dosed twice daily for 14 consecutive weeks starting at age 10 weeks). Settings: not given.
Format: functional, organism-based

Row | Compound | inhibition
9 | CC(C)(C)c1ccc(S(=O)(=O)Nc2ccc(Cl)cc2C(=O)c2ccncc2)cc1 | Active

— ChEMBL document CHEMBL3714744, “Aryl sulfonamides” (2009)
